# According to patent publication US7833532B2, “Immunogenic lipopeptides comprising T-helper and cytotoxic T lymphocyte (CTL) epitopes” (The Council of The Queensland Institute of Medical Research, priority 2002, dated 2010):
# Several values for one entry are separate records, joined by “and”; a condition that tells them apart may be missing. Equal values may be shown once.
# Assays:
# [1] = system: B16-OVA cells; assay: Protection against B16-OVA melanoma challenge (tumour growth); assay type: in vivo, C57BL/6 mice; conditions: 20 nmoles s.c., 2×10^5 B16-OVA cells 14 days later
# Text: FIG. 13 is a graphical representation showing protection against B16 melanoma with lipopeptide vaccination. C57BL/6 mice were vaccinated with 20 nmoles lipidated peptide [P25]-Lys(Pam2Cys-Ser-Ser)-[[…]] ([…] disclosed as SEQ ID NO: 173) (open circles), non-lipidated peptide [P25]-Lys-[[…]] ([…] disclosed as SEQ ID NO: 173) (open triangles) or with PBS (open squares) subcutaneously in the base of the tail. Mice were then challenged s.c. on the back 14 days later with 2×10^5 B16-OVA cells (n=6 per group) and tumour growth monitored as described (Anraku, et al., J Virol. 76; 3791-3799, 2002).
# (§1) Each of 9 C57BL/6 mice (8-10 wks) were immunised subcutaneously with 20 nmoles of lipidated [P25]-Lys(Pam2Cys-Ser-Ser)-[[…]] ([…] disclosed as SEQ ID NO: 173) or non-lipidated [P25]-Lys-[[…]] ([…] disclosed as SEQ ID NO: 173) peptide in 100 μl volume of saline. In the case of lipidated peptide, lipid was attached between the two epitopes at the approximate centre of the molecule.
# 14 days after inoculation with non-lipidated [P25]-Lys-[[…]] ([…] disclosed as SEQ ID NO: 173) or lipidated peptide [P25]-Lys(Pam2Cys-Ser-Ser)-[[…]] […] Growing tumors were monitored, and the animals were sacrificed when tumor size reached 15 by 15 mm. Mean tumor area was calculated for each treatment group at the indicated number of days after the tumor challenge.
# [2] = system: splenocytes; assay: IFN-gamma secreting splenocytes in mice vaccinated with […] peptides and challenged with B16-OVA; assay type: in vivo, C57BL/6 mice; conditions: 20 nmoles s.c., B16-OVA challenge; for No. IFN-γ secreting splenocytes per 10^6 splenocytes, Average: average of three samples; for No. IFN-γ secreting splenocytes per 10^6 splenocytes: individual samples, in vitro stimulation with SIINFEKL
# Procedure: as §1
# CTL-specific IFN-γ-secreting cells were enumerated by an ELISPOT assay modified from that of Murali-Krishna et al., Immunity 8, 177-187, 1998. Flat-bottom polyvinyl chloride microtiter plates (96-well: Dynatech) were coated overnight with 50 μl of rat anti-(mouse IFN-γ) antibody (clone R4-14a2) at 5 μg/ml in PBS. Unoccupied sites on the wells were then blocked by incubation for 1 h with 10 mg of bovine serum albumin/ml in PBS, and the plates were washed three times with PBS containing 0.05% Tween 20 (PBST). Twofold dilutions of spleen or lymph node cells in T-cell medium were then added to the wells, together with 5×10^5 irradiated (2,200 rads, ^60Co source) syngeneic spleen cells from unimmunized mice and 10 U of recombinant human interleukin-2 (Pharmingen, San Diego, Calif.)/well. Cells were incubated at 37° C. in 5% CO2 for 18 h in the presence or absence of the CTL peptide at a concentration of 1 μg of peptide/ml. Cells were then lysed and removed by rinsing the plates, initially with distilled water and then PBST. Then, 50 μl of a 1/500 dilution of biotinylated anti-(mouse IFN-γ) antibody (clone XMG 1.2; Pharmingen) was added, and the plates were incubated at room temperature for 2 h. Plates were again washed, and 50 μl of streptavidin-alkaline phosphatase (Pharmingen; 1/400 dilution in 5 mg of bovine serum albumin/ml of PBST) was added to each well; the mixtures were then incubated for a further 2 h. […] When blue-green spots had developed, the plates were washed with water and dried, and the spots were counted with the aid of an inverted microscope.
# The ability of the lipopeptide vaccine containing the ovalbumin CTL epitope ([…]) (SEQ ID NO: 173) to induce protection against melanoma cells expressing this CTL epitope (B16-OVA cells) was assessed. IFN-γ production was determined in mice inoculated with lipopeptide comprising a CDV-F T-helper epitope (P25) and a CTL epitope ([…]) (SEQ ID NO: 173) of ovalbumin linked via the epsilon amino group of an internal lysine residue positioned between said epitopes to Pam2Cys (i.e. the peptide [P25]-Lys(Pam2Cys-Ser-Ser)-[[…]] ([…] disclosed as SEQ ID NO: 173) listed in FIG. 2 and based upon SEQ ID NO: 174). […] (SEQ ID NO: 173) and the number of IFN-γ producing cells per 1,000,000 splenocytes was measured.
# [3] = system: Lewis Lung tumour cells transfected with ovalbumin; assay: Therapeutic treatment of Lewis Lung tumour expressing ovalbumin (tumour incidence and survival); assay type: in vivo, mice; conditions: 20 nmoles s.c. 4 and 11 days after tumour cells; versus non-lipidated peptide or PBS
# Procedure: FIG. 14 is a graphical representation showing therapeutic treatment of Lewis Lung tumour with a lipopeptide immunogen, as determined by the percentage of animals that remain tumor free following immunization. Mice were injected with 3×10^4 Lewis Lung tumour cells that had been transfected with ovalbumin and therefore expressed the CTL epitope […] (SEQ ID NO: 173) [Nelson et al. J Immunol. 166: 5557-5566, 2001]. Four days after receiving tumour cells, animals were inoculated with 20 nmoles lipidated peptide [P25]-Lys(Pam2Cys-Ser-Ser)-[[…]] ([…] disclosed as SEQ ID NO: 173) (open circles), non-lipidated peptide [P25]-Lys-[[…]] […] Animals were monitored for tumour incidence; animals were euthanased when tumour area exceeded 100 mm^2.
# FIG. 15 is a graphical representation showing therapeutic treatment of Lewis Lung tumour with a lipopeptide immunogen, as determined by measuring survival of animals following immunization. […] Animals were monitored for survival; animals were euthanased when tumour area exceeded 100 mm^2.
# Mice were injected with 3×10^4 Lewis Lung tumour cells that had been transfected with ovalbumin and therefore expressed the CTL epitope (Nelson et al., J Immunol. 166: 5557-5566, 2001). […] Animals were monitored for tumour incidence and survival; animals were euthanased when tumour area exceeded 100 mm^2.
# [4] = system: syngeneic spleen cells pulsed with the CTL determinant; conditions: mouse
# [5] = system: D1 cells; assay: Maturation of D1 dendritic cells (surface MHC class II, flow cytometry); assay type: cell-based, BALB/c mouse; conditions: D1 cells, overnight incubation, 0.45 nmoles/mL; LPS positive control
# [6] = system: Mem 71 influenza virus; conditions: in vivo
compound,measurement,setting,value
[P25]-Lys(Pam2Cys-Ser-Ser)-[SIINFEKL]: peptide [P25]-Lys-[SIINFEKL] and a lipid of the Formula (IV) conjugated to the epsilon-amino group of the internal lysine (KLIPNASLIENCTKAELKSIINFEKL; Pam2Cys-Ser-Ser lipid on internal lysine),tumour growth (in words),[1]; over a 15 day period,No tumour growth
same,"No. IFN-γ secreting splenocytes per 10^6 splenocytes, Average",[2],227 per 10^6 splenocytes
same,No. IFN-γ secreting splenocytes per 10^6 splenocytes,[2],284 per 10^6 splenocytes and 205 per 10^6 splenocytes and 192 per 10^6 splenocytes
same,percentage of animals with fewer lesions developing (tumour free),[3],significantly higher
same,survival,[3],survived for longer
CCCCCCCCCCCCCCCC(=O)N[C@@H](CSCC(COC(=O)CCCCCCCCCCCCCCC)OC(=O)CCCCCCCCCCCCCCC)C(=O)N[C@@H](CO)C(=O)N[C@@H](CO)C(=O)NCCCC[C@H](NC(=O)[C@H](CO)NC(=O)[C@H](CCCCN)NC(=O)[C@H](CC(C)C)NC(=O)[C@H](CCC(=O)O)NC(=O)[C@@H](NC(=O)CNC(=O)[C@H](CCCCN)NC(=O)[C@@H](NC(=O)[C@H](CCC(N)=O)NC(=O)[C@H](Cc1ccccc1)NC(=O)[C@H](CCCNC(=N)N)NC(=O)[C@H](CC(N)=O)NC(=O)[C@H](CC(N)=O)NC(=O)[C@H](CC(C)C)NC(=O)[C@H](C)N)[C@@H](C)CC)C(C)C)C(=O)N[C@H](C(=O)N[C@@H](Cc1ccc(O)cc1)C(=O)N[C@@H](CCC(N)=O)C(=O)N[C@@H](CCCNC(=N)N)C(=O)N[C@H](C(=O)N[C@@H](CCCNC(=N)N)C(=O)N[C@@H](C)C(=O)N[C@@H](CC(C)C)C(=O)N[C@H](C(=O)O)C(C)C)[C@@H](C)O)[C@@H](C)O (stereo partly drawn) [[Th]-Lys(Pam3Cys-Ser-Ser)-[CTL]],CTL determinant specific cytotoxicity (specific lysis) in vivo,[4],marked enhancement of specific lysis in vivo
KLIPNASLIENCTKAELKSIINFEKL [reference compound],tumour size,[1]; 15 day period,greater than 75 mm^2
same,"No. IFN-γ secreting splenocytes per 10^6 splenocytes, Average",[2],14 per 10^6 splenocytes
same,No. IFN-γ secreting splenocytes per 10^6 splenocytes,[2],18 per 10^6 splenocytes and 14 per 10^6 splenocytes and 10 per 10^6 splenocytes
ALNNRFQIKGVELKSKTYQRTRALV [[Th]-Lys-[CTL]],"maturation of dendritic cells / up-regulation of MHC class II expression (comparative, in words)",[5],least effective
same,reduction in viral load in the lungs compared to PBS alone,[6],65%
